Source: US6355799B1, “Substituted benzene compounds, process for their preparation, and herbicidal and defoliant compositions containing them” (ISK Americas Incorporated, priority 1997, dated 2002)

Key:
Assay type in all cases: in vivo
[1] = test system: upland rice (Oryza sp., var. Tebonnet, RICE); experiment: Pre-emerge test, crop safety; details: pre-emerge, 14 days after application, scale 0-100
Method in brief: (§1)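 Plants grown in 10 cm pots of sandy loam mix received acetone-dissolved compounds through a moving flat-fan nozzle. Doses ranged from 15 to 1000 g ai/ha. Pre-emerge pots were seeded one day earlier, post-emerge pots 8–21 days earlier. Fourteen days on, each pot was graded 0–100 for damage.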

[2] = test system: field corn (Zea mays L., var. Dekalb 535, CORN); experiment: Pre-emerge test, crop safety; details: pre-emerge, 14 days after application, scale 0-100
Method in brief: as §1

[3] = test system: sicklepod (Cassia obtusifolia, CASOB); experiment: Pre-emerge test, greenhouse herbicide activity screening; details: pre-emerge, 14 days after application, scale 0-100
Method in brief: (§2)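 Rating: 0–100 visual injury, 14 DAA. Application: acetone, 187 l/ha, 15–1000 g ai/ha, flat-fan track sprayer with nozzle 40–45 cm above soil or canopy. Post-emerge runs used 0.25% v/v surfactant on 2–3 leaf plants.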

[4] = test system: green foxtail (Setaria viridis, SETVI); experiment: as above; details: pre-emerge, 14 days after application, scale 0-100
Method in brief: as §2

[5] = test system: barnyardgrass (Echinochloa crus-galli, ECHCG); experiment: as above; details: pre-emerge, 14 days after application, scale 0-100
Method in brief: as §2

[6] = test system: johnsongrass (Sorghum halepense, SORHA); experiment: as above; details: pre-emerge, 14 days after application, scale 0-100
Method in brief: as §2

[7] = test system: velvetleaf (Abutilon theophrasti, ABUTH); experiment: as above; details: pre-emerge, 14 days after application, scale 0-100
Method in brief: as §2

[8] = test system: ivyleaf morningglory (Ipomoea hederacea, IPOHE); experiment: as above; details: pre-emerge, 14 days after application, scale 0-100
Method in brief: as §2

[9] = test system: lambsquarters (Chenopodium album, CHEAL); experiment: as above; details: pre-emerge, 14 days after application, scale 0-100
Method in brief: as §2

[10] = test system: large crabgrass (Digitaria sanguinalis, DIGSA); experiment: as above; details: pre-emerge, 14 days after application, scale 0-100
Method in brief: as §2

[11] = test system: sicklepod (Cassia obtusifolia, CASOB); experiment: Post-emerge test, greenhouse herbicide activity screening; details: post-emerge, 14 days after application, rating scale 0-100
Method in brief: (§3)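 Compounds in acetone were track-sprayed at 15-1000 g ai/ha (187 l/ha) on sandy loam pots: pre-emerge one day after seeding, post-emerge at 2-3 leaf stage with 0.25% v/v non-ionic surfactant. Phytotoxicity was rated 14 days later on a 0 (no damage) to 100 (complete death) scale.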

[12] = test system: green foxtail (Setaria viridis, SETVI); experiment: as above; details: post-emerge, 14 days after application, rating scale 0-100
Method in brief: as §3

[13] = test system: barnyardgrass (Echinochloa crus-galli, ECHCG); experiment: as above; details: post-emerge, 14 days after application, rating scale 0-100
Method in brief: as §3

[14] = test system: common ragweed (Ambrosia artemisizfolia L., AMBEL); experiment: as above; details: post-emerge, 14 days after application, rating scale 0-100
Method in brief: as §3

[15] = test system: johnsongrass (Sorghum halepense, SORHA); experiment: as above; details: post-emerge, 14 days after application, rating scale 0-100
Method in brief: as §3

[16] = test system: velvetleaf (Abutilon theophrasti, ABUTH); experiment: as above; details: post-emerge, 14 days after application, rating scale 0-100
Method in brief: as §3

[17] = test system: redroot pigweed (Amaranthus retroflexus, AMARE); experiment: as above; details: post-emerge, 14 days after application, rating scale 0-100
Method in brief: as §3

[18] = test system: ivyleaf morningglory (Ipomoea hederacea, IPOHE); experiment: as above; details: post-emerge, 14 days after application, rating scale 0-100
Method in brief: as §3

[19] = test system: lambsquarters (Chenopodium album, CHEAL); experiment: as above; details: post-emerge, 14 days after application, rating scale 0-100
Method in brief: as §3

[20] = test system: large crabgrass (Digitaria sanguinalis, DIGSA); experiment: as above; details: post-emerge, 14 days after application, rating scale 0-100
Method in brief: as §3

[21] = test system: redroot pigweed (Amaranthus retroflexus, AMARE); experiment: Pre-emerge test, greenhouse herbicide activity screening; details: pre-emerge, 14 days after application, scale 0-100
Method in brief: as §1

[22] = test system: upland rice (Oryza sp., var. Tebonnet, RICE); experiment: Post-emerge test, crop safety; details: post-emerge, 14 days after application, rating scale 0-100
Method in brief: as §1

[23] = test system: field corn (Zea mays L., var. Dekalb 535, CORN); experiment: Post-emerge test, crop safety; details: post-emerge, 14 days after application, rating scale 0-100
Method in brief: as §1

COc1c(Cl)cc(F)c(-n2c(=O)cc(C(F)(F)F)n(C)c2=O)c1NC(=O)c1ccc2cccc(F)c2c1 [2-161]
50: phytotoxicity rating CASOB ([3]; 250 g ai/ha) | DIGSA phytotoxicity rating ([20]; 250 g ai/ha)
100: phytotoxicity rating SETVI ([4]; 63 g ai/ha) | phytotoxicity rating SETVI ([4]; 250 g ai/ha) | phytotoxicity rating ABUTH ([7]; 63 g ai/ha) | phytotoxicity rating ABUTH ([7]; 250 g ai/ha) | phytotoxicity rating CHEAL ([9]; 63 g ai/ha) | phytotoxicity rating CHEAL ([9]; 250 g ai/ha) | phytotoxicity rating DIGSA ([10]; 250 g ai/ha) | CASOB phytotoxicity rating ([11]; 63 g ai/ha) | CASOB phytotoxicity rating ([11]; 250 g ai/ha) | AMBEL phytotoxicity rating ([14]; 250 g ai/ha) | ABUTH phytotoxicity rating ([16]; 63 g ai/ha) | ABUTH phytotoxicity rating ([16]; 250 g ai/ha) | AMARE phytotoxicity rating ([17]; 63 g ai/ha) | AMARE phytotoxicity rating ([17]; 250 g ai/ha) | IPOHE phytotoxicity rating ([18]; 63 g ai/ha) | IPOHE phytotoxicity rating ([18]; 250 g ai/ha) | CHEAL phytotoxicity rating ([19]; 63 g ai/ha) | CHEAL phytotoxicity rating ([19]; 250 g ai/ha) | phytotoxicity rating AMARE ([21]; 63 g ai/ha) | phytotoxicity rating AMARE ([21]; 250 g ai/ha)
20: phytotoxicity rating IPOHE ([8]; 63 g ai/ha) | SETVI phytotoxicity rating ([12]; 250 g ai/ha) | ECHCG phytotoxicity rating ([13]; 63 g ai/ha) | RICE phytotoxicity rating (crop damage) ([22]; 63 g ai/ha) | CORN phytotoxicity rating (crop damage) ([23]; 250 g ai/ha)
90: phytotoxicity rating ECHCG ([5]; 63 g ai/ha) | phytotoxicity rating IPOHE ([8]; 250 g ai/ha)
95: phytotoxicity rating DIGSA ([10]; 63 g ai/ha)
70: RICE phytotoxicity rating (crop damage) ([22]; 250 g ai/ha)
30: phytotoxicity rating SORHA ([6]; 250 g ai/ha) | AMBEL phytotoxicity rating ([14]; 63 g ai/ha) | SORHA phytotoxicity rating ([15]; 250 g ai/ha)
0: phytotoxicity rating RICE (crop damage) ([1]; 63 g ai/ha) | phytotoxicity rating CORN (crop damage) ([2]; 63 g ai/ha) | phytotoxicity rating CORN (crop damage) ([2]; 250 g ai/ha) | phytotoxicity rating CASOB ([3]; 63 g ai/ha) | phytotoxicity rating SORHA ([6]; 63 g ai/ha) | SETVI phytotoxicity rating ([12]; 63 g ai/ha) | SORHA phytotoxicity rating ([15]; 63 g ai/ha) | DIGSA phytotoxicity rating ([20]; 63 g ai/ha) | CORN phytotoxicity rating (crop damage) ([23]; 63 g ai/ha)
60: ECHCG phytotoxicity rating ([13]; 250 g ai/ha)
40: phytotoxicity rating RICE (crop damage) ([1]; 250 g ai/ha)
99: phytotoxicity rating ECHCG ([5]; 250 g ai/ha)
